Laboratory results from US20180117644A1, “METHOD FOR WASHING SEVOFLURANE STORAGE CONTAINER AND METHOD FOR STORING SEVOFLURANE” (CENTRAL GLASS COMPANY, LIMITED, priority 2016, published 2018).
Read-outs that look alike come from different tables or passages of the source.

Key:
[1] = Degradation of sevoflurane (severe testing) with alumina, gas chromatographic composition; type: physicochemical; conditions: sevoflurane with moisture 6 ppm, alumina 50 mg, 50° C., 64 hours, after third water washing
Protocol: In Example 1, sevoflurane was treated under conditions more stringent than actual sevoflurane storage conditions so that “polyether” was forcibly generated. Specifically, according to the disclosure of Patent Literature 5, the water content of sevoflurane was adjusted to be lower than that of sevoflurane obtained as a final product (6 ppm). Further, sevoflurane was heated to 50° C. under the presence of oxidized aluminium (alumina) serving as Lewis acid (i.e., a substance that is considered to catalyze sevoflurane degradation in Patent Literature 5). As a result, a portion of sevoflurane was degraded into polyether, resulting in generation of “sevoflurane containing polyether” in the system. It was attempted to wash the obtained “sevoflurane containing polyether” with water.
Sevoflurane (used as a pharmaceutical product) (100 cm^3) was placed in a erlenmeyer flask and cooled to 10° C. in a refrigerator. Then, synthetic zeolite was introduced into the erlenmeyer flask so that the weight ratio of synthetic zeolite:sevoflurane became 1:4. Next, the erlenmeyer flask was allowed to stand still in a refrigerator at 10° C. for 2 hours and 30 minutes for drying of sevoflurane (reduction of water content).
Alumina (50 mg) was placed in a 50-cm^3 brown bottle with a narrow mouth. Sevoflurane having a moisture content of 6 ppm prepared in (1-1) (20 cm^3, 29.9 g) was added thereto.
Next, the cap of the brown bottle with a narrow mouth was closed and the bottle was heated in a thermostatic bath at 50° C. for 64 hours. After heating for 64 hours, the bottle was cooled in a refrigerator (10° C.) for 1 hour.
As the sevoflurane obtained as a result of severe testing in (1-2) contained hydrogen fluoride (HF), water washing (back extraction of HF into an aqueous phase) was conducted for the ease of handling. Specifically, the sevoflurane subjected to severe testing and water (15 cm^3) were introduced into a separatory funnel made of tetrafluoroethylene, stirred for 1 minute, and allowed to stand still for 1 minute, followed by liquid separation. Then, the aqueous phase was collected and pH was checked using a pH test paper.
Meanwhile, after the third water washing, the gas chromatographic composition of the organic phase was detected as follows: sevoflurane: about 87%; polyether 1: 8.4% (84000 ppm); and polyether 2: 4.0% (40000 ppm). In addition, 190 ppm of hexafluoroisopropyl alcohol (HFIP) was detected.

[2] = as disclosed in Patent Literature 5; cited from earlier work
[3] = Moisture content of liquid sevoflurane stored with dry nitrogen in autoclave (Karl Fischer); type: physicochemical
Protocol: A 1-dm^3 autoclave (SUS304) used as a sevoflurane storage container was filled with dry nitrogen. Liquid sevoflurane (i.e., a sevoflurane product containing 400 ppm of water) (30 g) was added thereto. The autoclave was hermetically closed and stored at room temperature for 1 month. Then, moisture content was measured using a Karl Fischer moisture meter. […] The liquid sevoflurane was stored for another month in the autoclave in the same manner. Then, the moisture content was measured again.

[4] = cited from earlier work

gas chromatographic composition of the organic phase: polyether 1 [1]: 8.4% | gas chromatographic composition of the organic phase: polyether 2 [1]: 4.0% | gas chromatographic composition of the organic phase: sevoflurane [1]: about 87% | hexafluoroisopropyl alcohol (HFIP) detected in the organic phase [1]: 190 ppm | moisture content ([3]; product containing 400 ppm of water, 30 g in 1-dm^3 autoclave (SUS304) filled with dry nitrogen, room temperature, 1 month): 360 ppm | moisture content ([3]; same storage, another month (2 months in total)): 350 ppm
SMILES: FCOC(C(F)(F)F)C(F)(F)F [sevoflurane, Fluoromethyl-1,1,1,3,3,3-hexafluoroisopropyl ether]
upper limit of the amount of water that can be mixed with sevoflurane [2]: about 1400 ppm | vapor pressure ([4]; 25° C.): about 0.026 MPa | vapor pressure ([4]; 35° C.): about 0.041 MPa | vapor pressure ([4]; 45° C.): about 0.061 MPa
